Patent US6632829B2, “Sulfonamides and derivatives thereof that modulate the activity of endothelin” (Texas Biotechnology Corp., priority 1996, dated 2003)

Columns and labels:
[1] = target: T1, human ETA receptors (Homo sapiens, UniProt P25101); assay: Endothelin binding inhibition, Binding Test #1: competition with 125I-ET-1 for ETA receptors on TE 671 cell membranes
T1 construct: endogenous in cells; host or cells: TE 671 cells (ATCC HTB 139), membrane preparation
T1 sequence (P25101 21-427): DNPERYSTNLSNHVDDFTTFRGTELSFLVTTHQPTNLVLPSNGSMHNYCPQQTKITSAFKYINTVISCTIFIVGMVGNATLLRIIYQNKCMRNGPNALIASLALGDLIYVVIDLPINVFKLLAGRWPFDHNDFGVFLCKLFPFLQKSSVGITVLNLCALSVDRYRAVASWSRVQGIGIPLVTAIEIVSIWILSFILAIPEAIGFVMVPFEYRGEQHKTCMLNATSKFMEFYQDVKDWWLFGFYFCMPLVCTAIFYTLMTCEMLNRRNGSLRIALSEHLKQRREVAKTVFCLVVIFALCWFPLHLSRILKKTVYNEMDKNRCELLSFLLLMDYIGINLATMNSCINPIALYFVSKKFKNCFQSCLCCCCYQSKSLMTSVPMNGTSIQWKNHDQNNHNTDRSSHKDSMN
Protocol: (§1) Cells from multiple flasks were collected by scraping, pooled and centrifuged for 10 min at 190×g. The cells were resuspended in phosphate buffered saline (PBS) containing 10 mM EDTA using a Tenbroeck homogenizer. The suspension was centrifuged at 4° C. at 57,800×g for 15 min, the pellet was resuspended in 5 mL of buffer A (5 mM HEPES buffer, pH 7.4 containing aprotinin (100 KIU/mL)) and then frozen and thawed once. 5 mL of Buffer B (5 mM HEPES Buffer, pH 7.4 containing 10 mM MnCl2 and 0.001% deoxyribonuclease Type 1) was added, the suspension mixed by inversion and then incubated at 37° C. for 30 minutes. The mixture was centrifuged at 57,800×g as described above, the pellet washed twice with buffer A and then resuspended in buffer C (30 mM HEPES buffer, pH 7.4 containing aprotinin (100 KIU/mL) to give a final protein concentration of 2 mg/mL and stored at −70° C. until use.
The membrane suspension (50 μL), containing up to 8 μg of membrane protein, was added to each of (A), (B), or (C). […] Alternatively, the incubation was conducted at 24° C.
The supernatant, containing unbound radioactivity, was decanted and the pellet counted on a Genesys multiwell gamma counter. The degree of inhibition of binding (D) was calculated according to the following equation: [formula]
Each test was generally performed in triplicate.

[2] = target: T2, human ETB receptor (Homo sapiens, UniProt P24530); assay: Endothelin binding inhibition, Binding Test #2: competition with 125I-ET-1 for ETB receptors on transfected COS7 cell membranes
T2 construct: expressed in transfected cells; host or cells: COS7 cells
T2 sequence (P24530 27-442): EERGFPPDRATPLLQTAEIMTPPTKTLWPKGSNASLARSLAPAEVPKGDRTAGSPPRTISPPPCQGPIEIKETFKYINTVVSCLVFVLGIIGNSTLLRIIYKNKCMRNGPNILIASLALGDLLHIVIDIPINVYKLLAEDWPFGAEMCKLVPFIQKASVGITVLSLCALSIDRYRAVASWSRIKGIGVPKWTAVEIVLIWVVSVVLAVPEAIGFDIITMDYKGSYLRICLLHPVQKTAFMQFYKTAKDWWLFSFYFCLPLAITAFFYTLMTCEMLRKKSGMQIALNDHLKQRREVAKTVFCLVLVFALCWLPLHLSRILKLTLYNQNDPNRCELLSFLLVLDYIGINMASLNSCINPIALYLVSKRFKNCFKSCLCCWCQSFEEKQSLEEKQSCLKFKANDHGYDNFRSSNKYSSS
Text: Compounds that are potential endothelin antagonists are identified by testing their ability to compete with ^125I-labeled ET-1 for binding to human ETA receptors or ETB receptors present on isolated cell membranes. The effectiveness of the test compound as an antagonist or agonist of the biological tissue response of endothelin can also be assessed by measuring the effect on endothelin induced contraction of isolated rat thoracic aortic rings. The ability of the compounds to act as antagonists or agonists for ETB receptors can be assess by testing the ability of the compounds are to inhibit endothelin-1 induced prostacyclin release from cultured bovine aortic endothelial cells.
COS7 cells were transfected with DNA encoding the ETB receptor, The resulting cells, which express the human ETB receptor, were grown to confluence in T-150 flasks. Membrane was prepared as described above. The binding assay was performed as described above using the membrane preparation diluted with binding buffer to a concentration of 1 μg/50 μL.
as §1, with “Briefly, the COS7 cells, described above, that had been transfected with DNA encoding the ETB receptor and express the human ETB receptor on their surfaces were grown to confluence in T-175 flasks. Cells” for “Cells”, “C.” for “C. at”, “once. Five” for “once. 5”, “2 mg/mL.” for “2 mg/mL and stored at −70° C. until use.”
The binding assay was performed as described above using the membrane preparation diluted to give 1 μg/50 μL of binding buffer.

[3] = incubation at 24° C. (values marked †)
[4] = incubation at 4° C. (values without †)

Compound | IC50 [1, 3] | IC50 [2, 3] | IC50 [1, 4] | IC50 [2, 4]
Cc1noc(NS(=O)(=O)c2c(-c3ccccc3C#N)sc3ccccc23)c1Cl [N-(4-chloro-3-methyl-5-isoxazolyl)-2-[2-(cyano)phenyl]benzo[b]thiophene-3-sulfonamide] | 6.33 µM | 8.82 µM | – | –
COc1cc(Cc2sc3ccccc3c2S(=O)(=O)Nc2onc(C)c2Br)cc(OC)c1OC [N-(4-bromo-3-methyl-5-isoxazolyl)-2-(3,4,5-trimethoxybenzyl)-benzo[b]thiophene-3-sulfonamide] | 0.013 µM | 1.2 µM | – | –
Cc1cc2c(cc1NC(=O)c1sccc1S(=O)(=O)Nc1onc(C)c1Cl)OCO2 [N-(4-chloro-3-methyl-5-isoxazolyl)-2-[2-methyl-4,5-(methylenedioxy)phenylaminocarbonyl]thiophene-3-sulfonamide] | 0.003 µM | 355 µM | – | –
Cc1noc(NS(=O)(=O)c2ccsc2CC(c2ccc3c(c2)OCO3)N(C)C)c1Cl (stereo not drawn) [N-(4-chloro-3-methyl-5-isoxazolyl)-2-[β-(dimethylamino)-3,4-(methylenedioxy)phenethy]thiophene-3-sulfonamide] | 20.9 µM | ~100 µM | – | –
Cc1ccc(CC(=O)c2sccc2S(=O)(=O)Nc2onc(C)c2Br)c(C)c1 [N-(4-bromo-3-methyl-5-isoxazolyl)-2-(2,4-dimethylphenylacetyl)thiophene-3-sulfonamide] | 0.0008 µM | 3.6 µM | – | –
N-(4-chloro-3-methyl-5-isoxazolyl)-2-[2-hydroxypropyl-4,5-(methylenedioxy)phenylaminocarbonyl]thiophene-3-sulfonamide | 0.0073 µM | 8.3 µM | – | –
COc1cccc(OC(=O)c2sccc2S(=O)(=O)Nc2onc(C)c2Br)c1 [N-(4-bromo-3-methyl-5-isoxazolyl)-2-[(3-methoxylphenoxy)carbonyl]thiophene-3-sulfonamide] | 0.79 µM | 90 µM | – | –
Cc1noc(NS(=O)(=O)c2ccsc2C(=O)Nc2ccccc2O)c1Br [N-(4-bromo-3-methyl-5-isoxazolyl)-2-[(2-hydroxyphenyl)aminocarbonyl]thiophene-3-sulfonamide] | 0.013 µM | 38 µM | – | –
Cc1cc(NC(=O)c2sccc2S(=O)(=O)Nc2onc(C)c2Cl)no1 [N-(4-chloro-3-methyl-5-isoxazolyl)-2-[(5-methyl-3-isoxazolyl)aminocarbonyl]thiophene-3-sulfonamide] | 0.056 µM | 92 µM | – | –
Cc1noc(NS(=O)(=O)c2ccsc2NC(=O)Oc2ccc3c(c2)OCO3)c1Br [N-(4-bromo-3-methyl-5-isoxazolyl)-2-[3,4-(methylenedioxy)phenoxycarbonylamino]thiophene-3-sulfonamide] | 0.087 µM | 5.9 µM | – | –
COc1ccc(CC(=O)c2sccc2S(=O)(=O)Nc2onc(C)c2Cl)cc1 [N-(4-chloro-3-methyl-5-isoxazolyl)-2-[(4-methoxyphenyl)acetyl]thiophene-3-sulfonamide] | 0.043 µM | 10.1 µM | – | –
Cc1cc2c(cc1CC(=O)c1sccc1S(=O)(=O)Nc1onc(C)c1C)OCO2 [N-(3,4-dimethyl-5-isoxazolyl)-2-[2-methyl-4,5-(methylenedioxy)phenylacetyl]thiophene-3-sulfonamide] | 0.00328 µM | 34.3 µM | – | –

The next lines start with the values.

IC50 [1, 3] | IC50 [2, 3] | IC50 [1, 4] | IC50 [2, 4] | Compound
1.4 µM | 60 µM | – | – | Cc1noc(NS(=O)(=O)c2ccsc2C(=O)Oc2cccc(N(C)C)c2)c1Cl [N-(4-chloro-3-methyl-5-isoxazolyl)-2-[(3-dimethylamino)phenoxycarbonyl]thiophene-3-sulfonamide]
– | – | 0.188 µM | 16 µM | Cc1noc(NS(=O)(=O)c2ccsc2C(=O)N(C)c2ccccc2)c1Br [N-(4-bromo-3-methyl-5-isoxazolyl)-2-[(methyl)phenylaminocarbonyl]thiophene-3-sulfonamide]
0.933 µM | 7.7 µM | 0.214 µM | 5.34 µM | COc1cccc(NCc2sccc2S(=O)(=O)Nc2onc(C)c2C)c1 [N-(3,4-dimethyl-5-isoxazolyl))-2-[(3-methoxyanilino)methyl]thiophene-3-sulfonamide]
~0.1 µM | ~5 µM | – | – | Cc1cc2c(cc1CCc1ccsc1S(=O)(=O)Nc1onc(C)c1Br)OCO2 [N-(4-bromo-3-methyl-5-isoxazolyl)-3-[2-methyl-4,5-(methylenedioxy)phenethyl]thiophene-2-sulfonamide]
0.138 µM | 11.9 µM | – | – | CCCc1cc2c(cc1OC(=O)c1sccc1S(=O)(=O)Nc1onc(C)c1Br)OCO2 [N-(4-bromo-3-methyl-5-isoxazolyl)-2-{[2-propyl-4,5-(methylenedioxy)phenoxy]carbonyl}thiophene-3-sulfonamide]
0.5 µM | 79 µM | – | – | Cc1noc(NS(=O)(=O)c2sccc2-c2ccc3c(c2)OCO3)c1Br [N-(4-bromo-3-methyl-5-isoxazolyl)-3-[(3,4-methylenedioxy)phenyl]thiophene-2-sulfonamide]
0.051 µM | 1.5 µM | – | – | COc1ccc(Cc2sc3ccccc3c2S(=O)(=O)Nc2onc(C)c2Br)cc1 [N-(4-bromo-3-methyl-5-isoxazolyl)-2-(4-methoxybenzyl)benzo[b]thiophene-3-sulfonamide]
20 µM | > 100 µM | – | – | Cc1noc(NS(=O)(=O)c2ccsc2C(=O)N2CCN(Cc3ccc4c(c3)OCO4)CC2)c1Cl [N-(4-chloro-3-methyl-5-isoxazolyl)-2-{[4-(3,4-methylenedioxybenzyl)piperazin-1-yl]carbonyl}thiophene-3-sulfonamide]
0.0056 µM | 16.8 µM | – | – | Cc1noc(NS(=O)(=O)c2ccsc2C(=O)Nc2cc3c(cc2CCO)OCO3)c1Cl [N-(4-chloro-3-methyl-5-isoxazolyl)-2-[3,4-(methylenedioxy)-6-(2-hydroxyethyl)phenylaminocarbonyl]thiophene-3-sulfonamide]
1.71 µM | 59.1 µM | – | – | COc1ccccc1-c1ccsc1S(=O)(=O)Nc1onc(C)c1Br [N-(4-bromo-3-methyl-5-isoxazolyl)-3-(2-methoxyphenyl)thiophene-2-sulfonamide]
– | – | 0.631 µM | 53.2 µM | COC(=O)c1sccc1S(=O)(=O)Nc1onc(C)c1Cl [N-(4-chloro-3-methyl-5-isoxazolyl)-2-methoxycarbonylthiophene-3-sulfonamide]
0.0967 µM | – | – | 4.14 µM | Cc1noc(NS(=O)(=O)c2sccc2CC=Cc2cc3c(cc2COC2CCCCO2)OCO3)c1Br (centres unmarked) [N-(4-bromo-3-methyl-5-isoxazolyl)-3-{2-[(tetrahydro-4H-pyran-2-yloxy)methyl]-4,5-(methylenedioxy)cinnamyl}thiophene-2-sulfonamide]
